Assay [1] addresses Lysine-specific histone demethylase 1A (Homo sapiens, UniProt O60341).
Assay [2] addresses T1, Amine oxidase [flavin-containing] A (Homo sapiens, UniProt P21397).
T1 sequence (P21397 whole entry): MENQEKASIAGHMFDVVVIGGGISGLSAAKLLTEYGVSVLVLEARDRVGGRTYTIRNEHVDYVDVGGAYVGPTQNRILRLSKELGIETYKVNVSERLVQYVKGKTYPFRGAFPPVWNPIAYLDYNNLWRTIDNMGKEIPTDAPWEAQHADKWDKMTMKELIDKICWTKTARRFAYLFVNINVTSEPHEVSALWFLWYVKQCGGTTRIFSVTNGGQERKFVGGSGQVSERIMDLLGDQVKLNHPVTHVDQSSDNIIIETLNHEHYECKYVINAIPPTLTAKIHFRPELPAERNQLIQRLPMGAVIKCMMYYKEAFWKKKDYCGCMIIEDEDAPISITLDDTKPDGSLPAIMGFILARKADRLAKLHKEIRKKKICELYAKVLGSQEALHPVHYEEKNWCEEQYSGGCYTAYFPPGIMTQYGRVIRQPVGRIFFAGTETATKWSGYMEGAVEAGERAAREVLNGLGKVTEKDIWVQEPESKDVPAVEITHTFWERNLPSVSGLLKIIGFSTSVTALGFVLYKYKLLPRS

Assay [3] addresses T2, Amine oxidase [flavin-containing] B (Homo sapiens, UniProt P27338).
T2 sequence (P27338 whole entry): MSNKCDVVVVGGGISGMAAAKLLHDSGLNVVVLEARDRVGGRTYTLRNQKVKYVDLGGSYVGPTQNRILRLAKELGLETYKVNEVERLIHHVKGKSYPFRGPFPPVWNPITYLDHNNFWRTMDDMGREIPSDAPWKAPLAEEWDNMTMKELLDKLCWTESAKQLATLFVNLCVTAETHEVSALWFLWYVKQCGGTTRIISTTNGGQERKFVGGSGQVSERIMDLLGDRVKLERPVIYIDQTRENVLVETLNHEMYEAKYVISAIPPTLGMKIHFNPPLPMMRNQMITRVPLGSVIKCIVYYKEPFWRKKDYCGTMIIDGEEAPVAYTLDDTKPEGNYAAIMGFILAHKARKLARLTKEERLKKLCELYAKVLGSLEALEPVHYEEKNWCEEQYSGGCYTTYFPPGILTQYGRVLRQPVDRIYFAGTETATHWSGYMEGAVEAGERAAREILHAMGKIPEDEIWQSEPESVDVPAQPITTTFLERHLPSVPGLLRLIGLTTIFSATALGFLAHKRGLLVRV

SMILES strings stand for the structures.

By IC50 is commonly meant the point on the concentration scale where inhibition reaches its midpoint. A lower IC50 goes with inhibition by little substance.

For the compound `C[C@H](N)C(=O)N[C@@H](CCCNC(=N)N)C(=O)N[C@H](C(=O)N[C@@H](CCCCN[C@@H]1C[C@H]1c1ccccc1)C(=O)N[C@@H](CCC(N)=O)C(=O)N[C@H](C(=O)N[C@@H](C)C(=O)N[C@@H](CCCNC(=N)N)C(=O)N[C@@H](CCCCN)C(=O)N[C@@H](CO)C(=O)N[C@H](C(=O)O)[C@@H](C)O)[C@@H](C)O)[C@@H](C)O`, the IC50 in assay [1] is 0.154 µM; in assay [2] it was above 10 µM; in assay [3], above 10 µM.

The record behind these values is ChEMBL document CHEMBL4177723, “Histone H3 peptides incorporating modified lysine residues as lysine-specific demethylase 1 inhibitors” (Bioorg Med Chem Lett, 2018).
